Test results taken from patent US20240415834A1, “LURBINECTEDIN AND ATEZOLIZUMAB COMBINATIONS” (priority 2021, published 2024).
Read-outs that look alike come from different tables or passages of the source.

Legend:
patients with ES-SCLC = settings: IMpower133; cited from earlier work
PANC-1 = experiment: MTT short-term viability assay, 72 hours exposure; assay type: cell-based; settings: Homo sapiens, Pancreas, read-out: IG50 (the source's name)
Protocol: (§1) The antineoplastic in vitro activity of lurbinectedin was evaluated in a panel of solid tumour cell lines (some of which are shown in Table 1), which were exposed to a range of lurbinectedin concentrations for 72 hours and then assayed for viability by a MTT short-term assay.

HCT 116 = experiment: MTT short-term viability assay, 72 hours exposure; assay type: cell-based; settings: Homo sapiens, Colon, read-out: IG50 (the source's name)
Protocol: as §1

NCl-H23 = experiment: MTT short-term viability assay, 72 hours exposure; assay type: cell-based; settings: Lung, read-out: IG50 (the source's name)
Protocol: as §1

MCF-7 = experiment: MTT short-term viability assay, 72 hours exposure; assay type: cell-based; settings: Homo sapiens, MCF7, Breast, read-out: IG50 (the source's name)
Protocol: as §1

BT-474 = experiment: MTT short-term viability assay, 72 hours exposure; assay type: cell-based; settings: Homo sapiens, Breast, read-out: IG50 (the source's name)
Protocol: as §1

A-549 = experiment: MTT short-term viability assay, 72 hours exposure; assay type: cell-based; settings: Homo sapiens, A549, Lung, read-out: IG50 (the source's name)
Protocol: as §1

MiaPaca-2 = experiment: MTT short-term viability assay, 72 hours exposure; assay type: cell-based; settings: Homo sapiens, MIA PaCa-2, Pancreas, read-out: IG50 (the source's name)
Protocol: as §1

NCl-H460 = experiment: MTT short-term viability assay, 72 hours exposure; assay type: cell-based; settings: Lung, read-out: IG50 (the source's name)
Protocol: as §1

MDA-MB-231 = experiment: MTT short-term viability assay, 72 hours exposure; assay type: cell-based; settings: Homo sapiens, Breast, read-out: IG50 (the source's name)
Protocol: as §1

IGROV-1 = experiment: MTT short-term viability assay, 72 hours exposure; assay type: cell-based; settings: Homo sapiens, Ovarian, read-out: IG50 (the source's name)
Protocol: as §1

A2780 = experiment: MTT short-term viability assay, 72 hours exposure; assay type: cell-based; settings: Homo sapiens, Ovarian, read-out: IG50 (the source's name)
Protocol: as §1

HT-29 = experiment: MTT short-term viability assay, 72 hours exposure; assay type: cell-based; settings: Homo sapiens, Colon, read-out: IG50 (the source's name)
Protocol: as §1

LoVo = experiment: MTT short-term viability assay, 72 hours exposure; assay type: cell-based; settings: Homo sapiens, Colon, read-out: IG50 (the source's name)
Protocol: as §1

[1] = dog, in vivo
CYP isoforms = experiment: In vitro metabolism studies with human microsomes; assay type: in vitro ADME; settings: followed by CYP2E1, CYP2D6 and CYP2C9
Excerpt: The estimated contribution of the other CYP isoenzymes to the PM01183 metabolism is considered to be negligible. Therefore, concomitant drugs which induce or inhibit any of these cytochromes, especially CYP3A4, should be carefully monitored or avoided, whenever is possible.

LXFL 529 lung xenograft = experiment: In vivo antitumour activity in xenografts; design: species or system athymic mice; settings: Lung LXFL 529; Q7d × 3; 0.18 mg/kg/day (0.54 mg/m^2/day); optimal day D-28
A2780 ovary xenograft = experiment: In vivo antitumour activity in xenografts; design: species or system athymic mice; settings: Q7d × 3, 0.18 mg/kg/day (0.54 mg/m^2/day), optimal day D-17
[2] = Toxicity studies: HR and ECGs of dogs after single or repeated administration; assay type: in vivo; settings: doses up to 0.05 mg/kg (1 mg/m^2)
[3] = tested on: broad selection of tumour-derived cell lines; experiment: In vitro cytotoxic effects against tumour-derived cell lines; assay type: cell-based; settings: read-out: median IC50
PC-3 prostate xenograft = experiment: In vivo antitumour activity in xenografts; design: species or system athymic mice; settings: Prostate PC-3; Q7d × 3; 0.18 mg/kg/day (0.54 mg/m^2/day); optimal day D-27
[4] = tested on: patients with metastatic SCLC; settings: cited from earlier work
[5] = tested on: UM-UC-3 bladder xenograft; experiment: In vivo antitumour activity in xenografts; design: species or system athymic mice; settings: Bladder UM-UC-3; Qd × 5 × 2; 0.06 mg/kg/day (0.18 mg/m^2/day); optimal day D-23
[6] = Pooled logistic regression analysis of phase II data, review of recommended dose; assay type: in vivo, human; settings: q3 wk, BSA-based dosing, to limit severe myelosuppression
Protocol: Owing to these findings, all actively recruiting and planned studies now use BSA-based dosing to limit severe myelosuppression. The original RD of 4.0 mg/m^2 q3 wk has been reviewed and reduced to 3.2 mg/m^2 q3 wk for the same reason.

[7] = tested on: Capan-1 pancreas xenograft; experiment: In vivo antitumour activity in xenografts; design: species or system athymic mice; settings: Pancreas Capan-1; Q7d × 3; 0.18 mg/kg/day (0.54 mg/m^2/day); optimal day D-61
in vivo = settings: rodent, iv
[8] = Cardiovascular parameters (ABP, HR, lead II ECG) after single bolus injection in dogs; assay type: in vivo; settings: six hours, doses up to 0.01 mg/kg (0.2 mg/m^2)
[9] = rat, in vivo
[10] = tested on: human-derived tumour xenografts; experiment: Tumour susceptibility in xenografts of human-derived tumour types; assay type: in vivo, athymic mice; settings: single bolus i.v. at rodent MTD 0.3 mg/kg
MX-1 breast xenograft = experiment: In vivo antitumour activity in xenografts; design: species or system athymic mice; settings: Breast MX-1; Q7d × 3; 0.18 mg/kg/day (0.54 mg/m^2/day); optimal day D-21
[11] = PM1183-A-008-13 phase I study, interaction with aprepitant; assay type: in vivo, human; settings: in the presence of aprepitant (CYP3A4 inhibitor), patients
Excerpt: PM01183 clearance was reduced by 50%, approximately, in the presence of aprepitant. Although all patients eventually recovered, the use of aprepitant is currently forbidden in all PM01183 studies.

[12] = tested on: MDA-MB-231 breast xenograft; experiment: In vivo antitumour activity in xenografts; design: species or system athymic mice; settings: Breast MDA-MB-231; Q7d × 3; 0.18 mg/kg/day (0.54 mg/m^2/day); optimal day D-34
[13] = tested on: patients with advanced and refractory solid tumours; design: species or system human; settings: in vivo
Protocol: The completed PM1183-A-001-08 phase I trial evaluated i.v. lurbinectedin in human patients for the first time, when infused over one hour (h) every three weeks (q3 wk) in 31 patients with advanced and refractory solid tumours. Among these, 15 (48.4%) patients were treated at the defined recommended dose (RD). The RD for phase II studies was defined at a PM01183 dose of 4.0 mg/m^2 q3 wk-equivalent to a 7.0 mg flat dose (FD) q3 wk. […] No signs of cumulative toxicity were observed.

## atezolizumab: humanized IgG1 monoclonal antibody that targets human PD-L1
Patients with ES-SCLC
  most common adverse reaction reported in ≥20% of patients: fatigue/asthenia, nausea, alopecia, constipation and decreased appetite

## COc1ccc2[nH]c3c(c2c1)CCN[C@]31CS[C@@H]2c3c(OC(C)=O)c(C)c4c(c3[C@H](COC1=O)N1[C@@H]2[C@H]2c3c(cc(C)c(OC)c3O)C[C@@H]([C@@H]1O)N2C)OCO4 [PM01183, lurbinectedin]
PANC-1
  IC50: 2.9 nM
HCT 116
  IC50: 65 nM
NCl-H23
  IC50: 0.54 nM
MCF-7
  IC50: 1.7 nM
BT-474
  IC50: 1.3 nM
A-549
  IC50: 1.3 nM
MiaPaca-2
  IC50: 1.1 nM
NCl-H460
  IC50: 1.6 nM
MDA-MB-231
  IC50: 3.5 nM
IGROV-1
  IC50: 9.8 nM
A2780
  IC50: 1.6 nM
HT-29
  IC50: 2.4 nM
LoVo
  IC50: 2 nM
[1]
  main target organs of toxicity: bone marrow and the liver
CYP isoforms
  major CYP isoform involved in the metabolism: CYP3A4
LXFL 529 lung xenograft
  T/C %: 5%
A2780 ovary xenograft
  T/C %: 34%
[2]
  electrophysiological alterations in HR and ECGs: no electrophysiological alterations
[3]
  IC50: ~0.1 nM
PC-3 prostate xenograft
  T/C %: 65%
[4]; independent review committee, 95% CI 4.9, 6.4
  median response duration: 5.1 months
[4]; independent review committee, 95% CI 22%, 40%
  ORR: 30%
[4]; investigator assessment RECIST 1.1, 105 patients, 3.2 mg/m^2 i.v. every 21 days, 95% CI 26%, 45%
  ORR: 35%
[4]; investigator assessment, 95% CI 4.1, 6.4
  median response duration: 5.3 months
[5]
  T/C %: 58%
[6]
  recommended dose, reviewed and reduced: 3.2 mg/m^2
[7]
  T/C %: 61%
In vivo
  MTD: 0.3 mg/kg
[8]
  effects on heart, ABP, lead II ECG variables (PR, QT, QTcF, QTcV, QRS), ECG gross morphology or rhythm: no effects
[9]
  main target organs of toxicity: bone marrow and the liver
[10]
  antitumour activity against bladder, pancreas and prostate xenografts: more moderate antitumour profile
[10]; different time points
  antitumour activity against breast, lung and ovarian xenografts: statistically significant antitumour activity (p<0.05)
MX-1 breast xenograft
  T/C %: 0%
[11]
  clearance reduction: ~50%
[12]
  T/C %: 40%
[13]; human
  dose-limiting toxicity (DLT) at the RD: grade 4 thrombocytopenia
  inter-patient variability in the area under the curve [AUC]: > 50.0%
  recommended dose, equivalent flat dose (FD): 7.0 mg
[13]; human, iv
  recommended dose (RD) for phase II studies: 4.0 mg/m^2
[13]
  PK dose linearity: linearity across all explored doses
  tolerability at the RD: generally well tolerated
